Results from article PMC12508156, “Non-canonical dihydrolipoyl transacetylase promotes chemotherapy resistance via mitochondrial tetrahydrofolate signaling” (Nature Communications, 2025).
Several values for one entry are separate records, joined by “and”; a condition that tells them apart may be missing. Equal entries are not always repeated.

What was measured:
[1] = tested on: cisplatin-resistant cancer cells; assay: Drug sensitivity of cancer cells (apoptosis, cell viability); format: cell-based, human; conditions: for sensitization of cancer cells to cisplatin treatment: 10 μM inhibitor and sublethal doses of cisplatin, 48 h (Fig. 4e, f); for sensitization of cancer cells to the agent by impairment of DLAT: KB-3-1cisR and A549cisR, DLAT knockdown vs control, sublethal doses 48 h: 50 μM carboplatin, 10 nM gemcitabine, 10 μM etoposide, 0.5 μM pemetrexed, 3 nM paclitaxel, 1 μM erlotinib
Experimental: Cell viability was determined using the CellTiter-Glo Luminescent Cell Viability Assay. […] Subsequently, the cells were cultured in complete medium for an additional 10 days, and the resulting colonies were visualized by staining with crystal violet and quantified using ImageJ software. For cell cycle analysis, cells fixed with 70% ethanol were stained with RNase A (100 µg/mL) and propidium iodide (50 μg/ml) for 30 min at 37 °C, and DNA content distribution was measured using flow cytometry (BD Symphony A3) and analyzed with FlowJo software (v10.9). Apoptotic cell death was assessed via FITC-conjugated annexin V and propidium iodide staining.

MT-CO2 = assay: MT-CO1, MT-CO2, COXIV expression (immunoblot, quantitative RT-PCR); format: cell-based, human
Experimental: Apoptosis (top) and cell viability (bottom) were determined. 10-formyl-THF rescues cisplatin-resistant cell growth (c) and MT-CO2 expression (d) in cells lacking K44 MTHFD2 acetylation. Cisplatin-treated cells expressing K44R MTHFD2 were subjected to 10 μM 10-formyl-THF for 24 h followed by annexin V staining, cell viability assay, and assessment of MT-CO1, MT-CO2, and COXIV levels by immunoblotting and quantitative RT-PCR. Cells expressing the acetyl-mimetic mutant form of MTHFD2 K44Q were included for comparison. Effect of MT-CO2 overexpression on cisplatin-resistant cell growth in cells lacking K44 MTHFD2 acetylation (e) or DLAT (f) by K44R MTHFD2 expression or DLAT knockdown, respectively. Data are mean ± SD from 4 independent biological replicates for (d) and 3 for (a–c, e, f). P values were determined by one-way ANOVA. Source data are provided as a Source Data file.
Supplementary Fig. 8: POLRMT is required for 10-formyl-THF-induced MT-CO2 expression in cisplatin-resistant cells. […]
absence of 10-formyl-THF (10 µM) for 24 h. The levels of MT-CO2, mitochondrial transcription factors, and myc-MTHFD2 were assessed by immunoblotting. […] MT-CO2 mRNA and protein levels were assessed by quantitative RT-PCR and immunoblotting, respectively. […] P values were determined by one-way ANOVA. […]

A549cisR cells = assay: Apoptotic cell death (annexin V/PI staining); format: cell-based, human; conditions: A549cisR; 5 mM DCA and/or sublethal cisplatin, 48 h; n=1-3: biological replicates
KB-3-1cisR cells = assay: Apoptotic cell death (annexin V/PI staining); format: cell-based, human; conditions: KB-3-1cisR; 5 mM DCA and/or sublethal cisplatin, 48 h; n=1-3: biological replicates
MTHFD1 = conditions: concurrently inhibiting the ubiquitous isozyme MTHFD1; cited from earlier work
Excerpt: Inhibitors targeting components of PDC include a non-selective PDK inhibitor, dichloroacetate (DCA)[39]. However, to the best of our knowledge, no specific inhibitor is available to target non-classical DLAT signaling that is independent of PDC. LY345899 and DS18561882 have been reported to be MTHFD2 inhibitors, and are a folate analog and a tricyclic coumarin-based compound that competitively binds to the substrate binding site[40]–[42]. However, these inhibitors are unselective, concurrently inhibiting the ubiquitous isozyme MTHFD1 and thus posing a potential safety risk; therefore, further ...

Bcl-xL = assay: Immunoblotting of apoptosis-associated proteins; format: cell-based, human; conditions: NAC in cisplatin-treated DLAT knockdown cells (Fig. 3h)
Experimental: Cellular ROS (upper), apoptosis (middle), and cell viability (lower) were measured. […] Mito-TEMPO (10 μM) or flag-tagged catalase was introduced in cisplatin-treated cells. Mitochondrial ROS and cytoplasmic hydrogen peroxide were measured by mitoSOX staining and luminescence detection, respectively. g Immunoblotting of apoptosis-associated proteins. […] Fold changes were obtained by comparing the DLAT knockdown group to the control group. […] P values were determined by two-tailed Student’s t-test (a, i) and one-way ANOVA for the rest. Source data are provided as a Source Data file.

[2] = tested on: A549cisR and KB-3-1cisR cells; assay: Senescence (p21) and autophagy (LC3-I/II, p62) markers, cell cycle; format: cell-based, human; conditions: 0.5 mM NAC, 24 h, DLAT shRNA and sublethal cisplatin
Experimental: 1cisR cells were transduced with DLAT-targeting shRNA and treated with sublethal doses of […]
antioxidant N-acetylcysteine (NAC). (a) Western blot analysis of p21 waf1/cip1 expression as a marker of cellular senescence. (b) Western blot analysis of LC3-I/II and p62 as markers of autophagy. (c) Cell cycle distribution was assessed by flow cytometry following propidium iodide staining. (d) Intracellular ROS levels were measured using the H2DCFDA probe. Error bars represent SD and are from 3 independent biological replicates for (c,d). P values were determined by one-way ANOVA.
(1 picture or pasted object on this page, not shown here)

DLAT = DLAT mRNA, DLAT protein and cell viability after elesclomol; format: cell-based, human; conditions: increasing doses up to 1 µM for 48 h
Experimental: Elesclomol was administered at increasing doses up to 1 µM for 48 h. The levels of DLAT mRNA (a), DLAT protein (b), and cell viability (c) are shown. Error bars represent the standard deviation (SD) and from 3 independent biological replicates for (a,c). P values were obtained by one-way ANOVA. 1 (1 picture or pasted object on this page, not shown here)

Nc1nc2c(c(=O)[nH]1)NC(CN(C=O)c1ccc(C(=O)N[C@@H](CCC(=O)O)C(=O)O)cc1)CN2 (stereo partly drawn) [10-formyl-THF, 10-Formyltetrahydrofolate]
attenuated cell viability and elevated apoptosis induced by cisplatin and DLAT loss ([1]; supplementation at physiological concentrations, 48 h, DLAT knockdown cells under sublethal cisplatin (Fig. 6a, b)): reversed
MT-CO2 expression in MTHFD2 K44R cells (MT-CO2; 10 μM 10-formyl-THF, 24 h, cisplatin-treated cells (Fig. 6d)): restored

O=C(O)C(Cl)Cl [DCA, dichloroacetate]
survival of cisplatin-resistant cancer cells ([1]; 5 mM DCA and cisplatin, 48 h, A549cisR and KB-3-1cisR (Fig. 2e)): no significant effect
Apoptotic death (A549cisR cells): 9.2 and 6.2
Apoptotic death (KB-3-1cisR cells): 2.5 and 4.8 and 4.4

Cc1c(N2CCN(C)[C@@H](C)C2)ccc2c3c(c(=O)oc12)CN(C(=O)c1ccc(NS(C)(=O)=O)c(OC(F)(F)F)c1)CC3 [DS18561882]
sensitization of cancer cells to cisplatin treatment [1]: sensitized
selectivity versus isozyme MTHFD1 (MTHFD1): unselective

Cc1ccccc1-c1cc(=O)oc2cc(OC(C)C(=O)N(C)C)ccc12 (stereo not drawn) [IMT1]
MT-CO2 expression induced by 10-formyl-THF (MT-CO2; IMT1 5 µM and 10-formyl-THF 10 µM, 24 h (Supplementary Fig. 8b)): mitigated

Nc1nc2c(c(=O)[nH]1)N1C(=O)N(c3ccc(C(=O)N[C@@H](CCC(=O)O)C(=O)O)cc3)CC1CN2 (stereo partly drawn) [LY345899]
sensitization of cancer cells to cisplatin treatment [1]: sensitized
selectivity versus isozyme MTHFD1 (MTHFD1): unselective

CC(=O)N[C@@H](CS)C(=O)O [NAC, N-acetyl-L-cysteine]
cisplatin-mediated ROS and apoptosis in DLAT knockdown cells ([1]; NAC 0.5 mM, cisplatin-treated DLAT knockdown cells (Fig. 3d)): significantly lowered
Bcl-xL expression (Bcl-xL): partially restored
senescence, autophagy, or cell cycle progression [2]: did not alter

N.N.O=C([O-])C1(C(=O)[O-])CCC1.[Pt+2] [carboplatin]
sensitization of cancer cells to the agent by impairment of DLAT [1]: sensitized

CN(NC(=O)CC(=O)NN(C)C(=S)c1ccccc1)C(=S)c1ccccc1 [elesclomol]
DLAT levels (gene and protein) (DLAT): did not alter

C#Cc1cccc(Nc2ncnc3cc(OCCOC)c(OCCOC)cc23)c1 [erlotinib]
sensitization of cancer cells to the agent by impairment of DLAT [1]: not

COc1cc([C@@H]2c3cc4c(cc3[C@@H](O[C@@H]3O[C@@H]5CO[C@@H](C)O[C@H]5[C@H](O)[C@H]3O)[C@H]3COC(=O)[C@H]23)OCO4)cc(OC)c1O [etoposide]
sensitization of cancer cells to the agent by impairment of DLAT [1]: sensitized

Nc1ccn([C@@H]2O[C@H](CO)[C@@H](O)C2(F)F)c(=O)n1 [gemcitabine]
sensitization of cancer cells to the agent by impairment of DLAT [1]: sensitized

CC1(C)CC(NC(=O)C[P+](c2ccccc2)(c2ccccc2)c2ccccc2)CC(C)(C)N1[O] [mito-TEMPO]
elevated apoptosis and attenuated cell viability induced by DLAT loss and cisplatin ([1]; Mito-TEMPO 10 μM (Fig. 3e)): reversed

CC(=O)O[C@H]1C(=O)[C@@]2(C)[C@H]([C@H](OC(=O)c3ccccc3)[C@]3(O)C[C@H](OC(=O)[C@H](O)[C@@H](NC(=O)c4ccccc4)c4ccccc4)C(C)=C1C3(C)C)[C@]1(OC(C)=O)CO[C@@H]1C[C@@H]2O [paclitaxel]
sensitization of cancer cells to the agent by impairment of DLAT [1]: sensitized

Nc1nc2[nH]cc(CCc3ccc(C(=O)N[C@@H](CCC(=O)O)C(=O)O)cc3)c2c(=O)[nH]1 [pemetrexed]
sensitization of cancer cells to the agent by impairment of DLAT [1]: sensitized
